Results on two molecules are retold here after paper PMC8451722, “Staphylococcus aureus Depends on Eap Proteins for Preventing Degradation of Its Phenol-Soluble Modulin Toxins by Neutrophil Serine Proteases” (Frontiers in Immunology, 2021).

The target in data set [1] is T1, human neutrophil elastase (Homo sapiens, UniProt P08246).
T1 construct: purchased PanReac AppliChem
T1 sequence (P08246 30-267): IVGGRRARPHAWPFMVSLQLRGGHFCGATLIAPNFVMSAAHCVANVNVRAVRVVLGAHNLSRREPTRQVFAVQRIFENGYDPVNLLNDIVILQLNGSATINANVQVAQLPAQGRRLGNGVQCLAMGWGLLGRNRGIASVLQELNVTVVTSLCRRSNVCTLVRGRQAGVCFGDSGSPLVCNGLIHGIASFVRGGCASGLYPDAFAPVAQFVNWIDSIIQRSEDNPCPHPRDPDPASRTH
In words: Prevention of NSP-mediated PSMα3 degradation by NSP inhibitors (western blot). It is filed as biochemical. Conditions: 100µM PMSF, one hour at 37°C, text: pre-incubation of neutrophils, Supplementary Figure 1: digestion with NE. The procedure:
(§1) PSMα3 (1,3µg) was digested either with 0,15 unit’s NE, CG or PR3 for one hour at 37°C with or without addition of PMSF (100µM) or 2µg Eap, 4µgEapH1 or 4µg EapH2. For digestion of PSMα3 by neutrophils, 25µl PSMα3 (20µM) was incubated for one hour with or without 5x10^6 neutrophils in 100µl RPMI at 37°C, 5% CO2. After centrifugation 10µl of the supernatant was used for western Blot analysis. After denaturation of the samples for two minutes at 85°C and addition of Tricine Sample Buffer, samples were subjected to a 10-20%- Tricine SDS gradient gel (Thermo Fischer Scientific). Then, proteins were blotted to a nitrocellulose membrane and blocked overnight using blocking buffer. After washing PSM α3 was visualized using rabbit anti-PSMα3 serum (kindly provided by Michael Otto) at a concentration of 1:10000 (for one hour, 4°C, under agitation). After washing with wash buffer (Tris buffered saline, BioRad +0,05% Tween, Merck), the secondary antibody goat anti rabbit IgG (Dylight 800 conjugate (LI-COR #2557) was added (diluted 1:10000 in blocking buffer) and incubated for one hour at 4°C. Protein bands were detected with the Licor Odyssey CLx.

Data set [2] concerns the target T2, human FPR2/ALX (Homo sapiens, UniProt P25090).
T2 construct: expressed in transfected cells; host or cells: HL60
T2 sequence (P25090 1-351): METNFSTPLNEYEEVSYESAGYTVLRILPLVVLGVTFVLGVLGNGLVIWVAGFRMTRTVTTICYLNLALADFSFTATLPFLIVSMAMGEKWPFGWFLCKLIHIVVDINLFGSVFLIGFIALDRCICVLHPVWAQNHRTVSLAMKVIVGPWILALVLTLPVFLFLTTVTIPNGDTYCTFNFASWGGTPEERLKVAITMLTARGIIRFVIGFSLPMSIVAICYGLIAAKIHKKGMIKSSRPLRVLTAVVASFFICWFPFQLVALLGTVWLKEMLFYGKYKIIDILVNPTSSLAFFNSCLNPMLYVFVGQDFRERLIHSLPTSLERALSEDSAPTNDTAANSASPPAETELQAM
In words: Calcium mobilization in HL60 FPR2 cells. As to conditions: calcium flux. It is filed as cell-based. The method, then: Culture filtrates of different bacterial strains (USA300, USA300ΔeapΔeapHIΔeapHII::ermB, S. epidermidis RN1457) were incubated with different amounts of neutrophils to investigate the potential of neutrophils to inactivate their PSM activity. Therefore, 100µl of sterile filtered overnight culture were incubated with 100µl neutrophils in RPMI at the indicated concentrations for six or 24 hours as described in the figure legends. After centrifugation, supernatants were collected and frozen at -20° until they were further analyzed for their FPR2 activity, for truncated PSM fragments and their cytotoxicity.
HL60 cells stably transfected with human FPR2/ALX (HL60-FPR2) have been described recently ([23]). These cells were grown in RPMI medium (Biochrom) supplemented with 10% FCS (Sigma-Aldrich), 20 mM Hepes (Biochrom), penicillin (100 units/ml), streptomycin (100 µg/ml) (Gibco), 1 × Glutamax (Gibco) and in the presence of G418 (Biochrom) at a final concentration of 1 mg/ml. […] Calcium fluxes were analyzed by stimulating cells loaded with Fluo-3-AM (Molecular Probes) and monitoring fluorescence with a FACSCalibur or a FACS Fortessa flow cytometer (BD Biosciences) as described recently ([23]).

Data set [3] concerns human neutrophils. Description: CD11b expression on neutrophils. It is filed as cell-based. Conditions: USA300 culture filtrate 0,36% in RPMI, treated 24 hours with neutrophils +/- PMSF; neutrophils stimulated 60 min 37°C; flow cytometry. The procedure:
Sterile filtered culture filtrates of S. aureus USA300 (0,36% in RPMI) or TSB were incubated for 24 hours either with or without addition of the NSP inhibitor PMSF and neutrophils. Activation of human neutrophils was determined by measuring surface expression of CD11b. Neutrophils were incubated with the treated culture filtrates at 37°C with rotation for 60 min as described elsewhere ([24]). Cells were stained with a PE-labeled antibody against CD11b (mAb 44; BD Biosciences) or isotype control antibody (BD Biosciences) as described previously. Then, neutrophils were analyzed on a FACS Fortessa cytometer (BD Biosciences)

In data set [4] the target is T3, human neutrophil proteinase 3 (Homo sapiens, UniProt P24158).
T3 construct: purchased MyBioSource
T3 sequence (P24158 28-256): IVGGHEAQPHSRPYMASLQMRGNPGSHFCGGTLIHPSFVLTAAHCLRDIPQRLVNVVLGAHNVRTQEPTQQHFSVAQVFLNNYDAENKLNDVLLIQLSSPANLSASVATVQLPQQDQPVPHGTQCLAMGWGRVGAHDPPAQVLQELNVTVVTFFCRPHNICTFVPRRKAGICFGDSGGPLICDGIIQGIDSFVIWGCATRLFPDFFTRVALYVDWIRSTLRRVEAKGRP
Description: Degradation of PSMα3 by PR3 (western blot). It is filed as in vitro ADME. Conditions: PSMα3 1,3µg, 0,15 units PR3, one hour at 37°C, three independent experiments. The procedure: (§2) The three different human serine proteases human NE, PR3, 0.01 U and CG, 0.01 U were investigated and their potential to inactivate PSMα3 was compared. […] 28 ng/ml NE (stock: 1.4 mg/ml) were incubated for one hour at 37°C in RPMI plus 0.05% HSA to inactivate 500 nM PSMα3 in a total volume of 120 μl (0.012 μl NE in 60 μl RPMI). To avoid further degradation of PSMα3, all stimulations were prepared freshly and analyzed in different assays on the same day.
as §1, with “Then, proteins were blotted to a nitrocellulose membrane and blocked overnight using blocking buffer. After washing PSM α3 was visualized using rabbit anti-PSMα3 serum (kindly provided by Michael Otto) at a concentration of 1:10000 (for one hour, 4°C, under agitation).” left out
In general terms: Immunoblotting shows a protein as a band on a membrane.

For data set [5], the target named is T4, human neutrophil cathepsin G (Homo sapiens, UniProt P08311).
T4 construct: purchased MyBioSource
T4 sequence (P08311 21-255): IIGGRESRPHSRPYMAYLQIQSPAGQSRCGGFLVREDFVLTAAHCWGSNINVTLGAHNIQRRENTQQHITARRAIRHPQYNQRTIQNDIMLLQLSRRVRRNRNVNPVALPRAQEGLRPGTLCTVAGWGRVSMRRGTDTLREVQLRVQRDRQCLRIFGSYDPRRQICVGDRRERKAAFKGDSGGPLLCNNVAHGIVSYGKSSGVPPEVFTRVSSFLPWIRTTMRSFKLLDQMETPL
In words: Degradation of PSMα3 by CG (western blot). It is filed as in vitro ADME. Conditions: PSMα3 1,3µg, 0,15 units CG, one hour at 37°C, three independent experiments. The procedure:
as §2
as §1, with “Then, proteins were blotted to a nitrocellulose membrane and blocked overnight using blocking buffer. After washing PSM α3 was visualized using rabbit anti-PSMα3 serum (kindly provided by Michael Otto) at a concentration of 1:10000 (for one hour, 4°C, under agitation).” left out

The target of data set [6] is T1, human neutrophil elastase. Description: Degradation of PSMα3 by NE (western blot). It is filed as in vitro ADME. Conditions: PSMα3 1,3µg, 0,15 units NE, one hour at 37°C, three independent experiments. The method, then: as §2
as §1, with “Then, proteins were blotted to a nitrocellulose membrane and blocked overnight using blocking buffer. After washing PSM α3 was visualized using rabbit anti-PSMα3 serum (kindly provided by Michael Otto) at a concentration of 1:10000 (for one hour, 4°C, under agitation).” left out

For data set [7], the system named is HL60 cells. Description: Cytotoxicity assay (LDH release), HL60 cells. It is filed as cell-based, human. Conditions: three independent experiments. The method, then:
100 μl of synthetic PSMs, protease degraded PSMs or filtered bacterial culture supernatants were added to wells of a 96-well round bottom culture plate containing 10^5 neutrophils in 100 μl and plates were incubated at 37°C for up to 3 h. At the desired times, the stimulation was stopped by centrifugation for 10 minutes at 300 x g at RT, and cell lysis was determined by measuring the release of lactate dehydrogenase (LDH) using the Cytotoxicity Detection Kit (Roche Applied Sciences), according to the manufacturer’s instructions. As control, 100 μl TSB was diluted in RPMI without phenol red, mixed with human neutrophils (10^6) and tested for its ability to cause cell lysis. As control, lysis of HL60 cells was tested in pure RPMI/TSB without phenol red.
(LDH in the medium is a marker of cell lysis.)

As for `O=S(=O)(F)Cc1ccccc1` [PMSF, Phenylmethylsulfonyl fluoride], the “effect of NSP inhibitor PMSF on degradation of PSMα3” value in data set [1] is listed as “prevents degradation of PSMα3”. The “PSM-mediated FPR2 activation by culture filtrates of PSM producing S. aureus in the simultaneous presence of neutrophils and inhibitor” value in data set [2] (HL60-FPR2 cells) is on record as “rescued PSM-mediated FPR2 activation”. Also, in data set [2] (three independent experiments), the “PSMα3-mediated activation of FPR2 in HL60-FPR2 cells after neutrophil treatment with PMSF pre-incubation” value is recorded as “maintained the activation of FPR2”. Further, in data set [3], the “CD11b surface expression on neutrophils incubated with culture filtrates of a PSM-producing S. aureus strain in the presence of inhibitor” value was “upregulation of CD11b”.
Regarding `CSCC[C@H](NC=O)C(=O)N[C@@H](CCC(=O)O)C(=O)N[C@@H](Cc1ccccc1)C(=O)N[C@H](C(=O)N[C@@H](C)C(=O)N[C@@H](CCCCN)C(=O)N[C@@H](CC(C)C)C(=O)N[C@@H](Cc1ccccc1)C(=O)N[C@@H](CCCCN)C(=O)N[C@@H](Cc1ccccc1)C(=O)N[C@@H](Cc1ccccc1)C(=O)N[C@@H](CCCCN)C(=O)N[C@@H](CC(=O)O)C(=O)N[C@@H](CC(C)C)C(=O)N[C@@H](CC(C)C)C(=O)NCC(=O)N[C@@H](CCCCN)C(=O)N[C@@H](Cc1ccccc1)C(=O)N[C@@H](CC(C)C)C(=O)NCC(=O)N[C@@H](CC(N)=O)C(=O)N[C@@H](CC(N)=O)C(=O)O)C(C)C` [PSMα3], the “degradation of PSMα3 upon incubation with PR3” value in data set [4] was “readily degraded”. Also, the “degradation of PSMα3 upon incubation with CG” value in data set [5] was “readily degraded”. Also, the “degradation of PSMα3 upon incubation with NE” value in data set [6] is “readily degraded”. Moreover, the “cytotoxicity of PSMα3 toward HL60 cells after treatment with NE, CG and PR3” value in data set [7] is listed as “abolished”.
